Reference: patent publication US20190364896A1, “SYNERGISTIC WEED CONTROL FROM APPLICATIONS OF PYRIDINE CARBOXYLIC ACID HERBICIDES AND ALS INHIBITORS” (Dow AgroSciences LLC, priority 2014, published 2019)

Tests used:
Experiment in all cases: Postemergence herbicidal activity, greenhouse trial (visual injury 0-100%)
Type in all cases: in vivo
[1] = tested on: wild pansy (Viola tricolor, VIOTR); details: Viola tricolor, post-emergence, VIOTR, read-out: % visual injury Obs
Protocol: (§1) Seeds of the desired test plant species were planted in Sun Gro MetroMix® 306 planting mixture, which typically has a pH of 6.0 to 6.8 and an organic matter content of about 30 percent, in plastic pots with a surface area of 103.2 square centimeters (cm^2). […] The plants were grown for 7-36 days (d) in a greenhouse with an approximate 14-hour (h) photoperiod which was maintained at about 23° C. during the day and 22° C. during the night. Nutrients and water were added on a regular basis and supplemental lighting was provided with overhead metal halide 1000-Watt lamps as necessary. The plants were employed for testing when they reached the second or third true leaf stage.
(§2) Weighed amounts of technical or formulated material (emulsifiable concentrate (EC) or soluble concentrate (SL)) were dissolved in a volume of 97:3 volume per volume (v/v) acetone/dimethyl sulfoxide (DMSO) to stock solutions. […] The concentrated stock solutions were diluted with an aqueous mixture of 1.5% v/v of Agri-dex crop oil concentrate to provide the appropriate application rates. Compound requirements are based upon a 12 milliliter (mL) application volume at a rate of 187 liters per hectare (L/ha). Spray solutions of the experimental compound mixtures were prepared by adding the stock solutions to the appropriate amount of dilution solution to form a 12 mL spray solution in two-way combinations. Formulated compounds were applied to the plant material with an overhead Mandel track sprayer equipped with 8002E nozzles calibrated to deliver 187 L/ha over an application area of 0.503 square meters (m^2) at a spray height of 18 inches (43 centimeters (cm)) above average plant canopy. Control plants were sprayed in the same manner with the solvent blank. Application rates for component (a) are in g ae/ha, and application rates for component (b) are in g ai/ha.
(§3) The treated plants and control plants were placed in a greenhouse as described above and watered by sub-irrigation to prevent wash-off of the test compounds. After 20-22 d, the condition of the test plants as compared with that of the control plants was determined visually and scored on a scale of 0 to 100 percent where 0 corresponds to no injury and 100 corresponds to complete kill. The condition of the test plants was compared with that of the control plants as determined visually and scored on a scale of 0 to 100 percent, where 0 corresponds to no injury and 100 corresponds to complete kill. Colby's equation was used to determine the herbicidal effects expected from the mixtures.
[…] Compound 2 was formulated as an EC and was combined with florasulam or pyroxsulam. The mixtures were applied to winter wheat (TRZAW), common rice (ORYSA), maize (ZEAMX), and the phytotoxicity of the herbicidal compositions was measured. In addition, the efficacy of the herbicidal compositions on blackgrass (Alopecurus myosuroides, ALOMY), pigweed (Amaranthus retrollexus, AMARE), wild oat (Avena fatua, AVEFA), common lambsquarters (Chenopodium album L., CHEAL), thistle (Cirsium arvense CIRAR), nutsedge (Cyperus esculentus, CYPES), barnyardgrass (Echinochloa crus-galli, ECHCG), poinsettia (Euphorbia heterophylla, EPHHL), ivyleaf morning-glory (Ipomoea hederacea, IPOHE), kochia (Kochia scoparia, KCHSC), wild buckwheat (Polygonum convolvulus, POLCO), grain sorghum (Sorghum vulgare, SORVU), chickweed (Stellaria media, STEME), wild pansy (Viola tricolor, VIOTR), was evaluated.
(§4) Weighed amounts of technical material were dissolved in a volume of 97:3 volume per volume (v/v) acetone/dimethyl sulfoxide (DMSO) to stock solutions. […] The concentrated stock solutions were diluted with an aqueous mixture of 1.5% v/v of Agri-dex crop oil concentrate to provide the appropriate application rates. Compound requirements are based upon a 12 milliliter (mL) application volume at a rate of 187 liters per hectare (L/ha).

[2] = tested on: pigweed (Amaranthus retroflexus, AMARE); details: for pest or weed control: 4.375 g ai/ha
Protocol: as §1, §2
as §3, with “mixtures. […]” for “mixtures.”
as §4

[3] = tested on: kochia (Kochia scoparia, KCHSC); details: for pest or weed control: 4.375 g ai/ha
Protocol: as §1, §2
as §3, with “mixtures. […]” for “mixtures.”
as §4

[4] = tested on: chickweed (Stellaria media, STEME); details: for pest or weed control: 4.375 g ai/ha
Protocol: as §1, §2, §3
(§5) Compound 1 was formulated as an EC and was combined with florasulam, cloransulam, diclosulam, flumetsulam, penoxsulam, or pyroxsulam. Compound 2 was formulated as an EC and was combined with florasulam or pyroxsulam. The mixtures were applied to winter wheat (TRZAW), common rice (ORYSA), maize (ZEAMX), and the phytotoxicity of the herbicidal compositions was measured. In addition, the efficacy of the herbicidal compositions on blackgrass (Alopecurus myosuroides, ALOMY), pigweed (Amaranthus retrollexus, AMARE), wild oat (Avena fatua, AVEFA), common lambsquarters (Chenopodium album L., CHEAL), thistle (Cirsium arvense CIRAR), nutsedge (Cyperus esculentus, CYPES), barnyardgrass (Echinochloa crus-galli, ECHCG), poinsettia (Euphorbia heterophylla, EPHHL), ivyleaf morning-glory (Ipomoea hederacea, IPOHE), kochia (Kochia scoparia, KCHSC), wild buckwheat (Polygonum convolvulus, POLCO), grain sorghum (Sorghum vulgare, SORVU), chickweed (Stellaria media, STEME), wild pansy (Viola tricolor, VIOTR), was evaluated.
as §4, with “(L/ha). […]” for “(L/ha).”

[5] = tested on: thistle (Cirsium arvense, CIRAR); details: for pest or weed control: 4.375 g ai/ha
Protocol: as §1, §2
as §3, with “mixtures. […]” for “mixtures.”
as §4

[6] = tested on: poinsettia (Euphorbia heterophylla, EPHHL); details: Euphorbia heterophylla, post-emergence; 4.375 g ai/ha; read-out: % visual injury Obs
Protocol: as §1
as §2, with “technical” for “technical or formulated”, “material” for “material (emulsifiable concentrate (EC) or soluble concentrate (SL))”
as §3, with “mixtures. […]” for “mixtures.”
as §2

[7] = tested on: nutsedge (Cyperus esculentus, CYPES); details: Cyperus, post-emergence, read-out: % visual injury Obs; for pest or weed control: 4.375 g ai/ha
Protocol: as §1
as §2, with “technical” for “technical or formulated”, “material” for “material (emulsifiable concentrate (EC) or soluble concentrate (SL))”
as §3, with “mixtures. […]” for “mixtures.”
as §2

[8] = tested on: barnyardgrass (Echinochloa crus-galli, ECHCG); details: Echinochloa crus-galli, post-emergence, read-out: % visual injury Obs
Protocol: as §1, §2, §3, §5
as §4, with “(L/ha). […]” for “(L/ha).”

[9] = tested on: ivyleaf morning-glory (Ipomoea hederacea, IPOHE)
Protocol: as §1, §2, §3, §5
as §4, with “(L/ha). […]” for “(L/ha).”

[10] = tested on: common lambsquarters (Chenopodium album L., CHEAL); details: Chenopodium album, post-emergence, 4.375 g ai/ha; read-out: % visual injury Obs
Protocol: as §1, §2, §3, §5
as §4, with “(L/ha). […]” for “(L/ha).”

[11] = tested on: wild buckwheat (Polygonum convolvulus, POLCO)
Protocol: as §1, §2
as §3, with “mixtures. […]” for “mixtures.”
as §4

[12] = Amaranthus retroflexus, post-emergence, read-out: % visual injury Obs
[13] = Cirsium arvense, post-emergence, read-out: % visual injury Obs
[14] = Bassia scoparia, post-emergence, read-out: % visual injury Obs
[15] = Stellaria media, post-emergence, read-out: % visual injury Obs

Compound: CCOc1ccccc1OS(=O)(=O)NC(=O)Nc1nc(OC)cc(OC)n1 [Ethoxysulfuron, ethoxysulfuron]
- pest or weed control at 10 g/ha ([1]; ethoxysulfuron 10 g ai/ha): 40%
- pest or weed control at 10 g/ha ([2]; Amaranthus retroflexus, post-emergence, AMARE, ethoxysulfuron 10 g ai/ha, read-out: % visual injury Obs): 20%
- pest or weed control at 10 g/ha ([3]; Bassia scoparia, post-emergence, KCHSC, ethoxysulfuron 10 g ai/ha, read-out: % visual injury Obs): 0%
- pest or weed control at 10 g/ha ([4]; Stellaria media, post-emergence, STEME, ethoxysulfuron 10 g ai/ha, read-out: % visual injury Obs): 10%

Compound: CCOc1nc(F)cc2nc(S(=O)(=O)Nc3c(Cl)cccc3Cl)nn12 [Diclosulam, diclosulam]
- pest or weed control [2, 12]: 60%
- pest or weed control [5, 13]: 93%
- pest or weed control [3, 14]: 50%
- pest or weed control [6]: 60%
- pest or weed control [7]: 50%
- pest or weed control ([8]; 4.375 g ai/ha): 30%
- pest or weed control ([9]; Ipomoea hederacea, post-emergence, 4.375 g ai/ha, read-out: % visual injury Obs): 93%
- pest or weed control [10]: 0%
- pest or weed control [4, 15]: 0%

Compound: CCS(=O)(=O)c1nc2ccccn2c1S(=O)(=O)NC(=O)Nc1nc(OC)cc(OC)n1 [Sulfosulfuron, sulfosulfuron]
- pest or weed control at 8.75 g/ha ([1]; sulfosulfuron 8.75 g ai/ha): 80%
- pest or weed control at 8.75 g/ha ([5]; Cirsium arvense, post-emergence, CIRAR, sulfosulfuron 8.75 g ai/ha, read-out: % visual injury Obs): 85%
- pest or weed control at 8.75 g/ha ([11]; Fallopia convolvulus, post-emergence, POLCO, sulfosulfuron 8.75 g ai/ha, read-out: % visual injury Obs): 80%
- pest or weed control at 8.75 g/ha ([7]; CYPES, sulfosulfuron 8.75 g ai/ha): 80%

Compound: COC(=O)c1ccccc1S(=O)(=O)NC(=O)N(C)c1nc(C)nc(OC)n1
- pest or weed control at […] ([11]; Fallopia convolvulus, post-emergence, POLCO, tribenuron 7.5 g ai/ha, read-out: % visual injury Obs): 90%
- pest or weed control at […] ([3]; Bassia scoparia, post-emergence, KCHSC, tribenuron 7.5 g ai/ha, read-out: % visual injury Obs): 70%
- pest or weed control at […] ([7]; CYPES, tribenuron 7.5 g ai/ha): 0%
- pest or weed control at […] ([9]; Ipomoea hederacea, post-emergence, IPOHE, tribenuron 7.5 g ai/ha, read-out: % visual injury Obs): 65%

Compound: COC(=O)c1csc(C)c1S(=O)(=O)NC(=O)n1nc(OC)n(C)c1=O
- pest or weed control at 5 g/ha ([5]; Cirsium arvense, post-emergence, 5 g ai/ha, read-out: % visual injury Obs): 50%
- pest or weed control at 5 g/ha ([3]; Bassia scoparia, post-emergence, 5 g ai/ha, read-out: % visual injury Obs): 10%
- pest or weed control at 5 g/ha ([7]; 5 g ai/ha): 70%
- pest or weed control at 5 g/ha ([4]; Stellaria media, post-emergence, 5 g ai/ha, read-out: % visual injury Obs): 95%

Compound: halosulfuron
- % visual injury Obs ([2]; AMARE, halosulfuron 17.5 g ai/ha): 30%
- % visual injury Obs ([5]; CIRAR, halosulfuron 8.75 g ai/ha): 10%
- % visual injury Obs ([11]; POLCO, halosulfuron 8.75 g ai/ha): 30%
- % visual injury Obs ([3]; KCHSC, halosulfuron 17.5 g ai/ha): 0%
- % visual injury Obs ([9]; IPOHE, halosulfuron 17.5 g ai/ha): 20%
- % visual injury Obs ([4]; STEME, halosulfuron 17.5 g ai/ha): 50%

Compound: COC(=O)c1sccc1S(=O)(=O)NC(=O)Nc1nc(C)nc(OC)n1
- pest or weed control at 15 g/ha ([5]; Cirsium arvense, post-emergence, CIRAR, thifensulfuron 15 g ai/ha, read-out: % visual injury Obs): 10%
- pest or weed control at 15 g/ha ([7]; CYPES, thifensulfuron 15 g ai/ha): 0%
- pest or weed control at 15 g/ha ([8]; ECHCG, thifensulfuron 15 g ai/ha): 10%
- pest or weed control at 15 g/ha ([9]; Ipomoea hederacea, post-emergence, IPOHE, thifensulfuron 15 g ai/ha, read-out: % visual injury Obs): 85%

Compound: COC(=O)c1ccc(I)cc1S(=O)(=O)[N-]C(=O)Nc1nc(C)nc(OC)n1.[Na+]
- pest or weed control at 2.5 g/ha ([11]; Fallopia convolvulus, post-emergence, POLCO, iodosulfuron 2.5 g ai/ha, read-out: % visual injury Obs): 80%

Compound: CCOc1nc(F)cc2nc(S(=O)(=O)Nc3c(Cl)cccc3C(=O)OC)nn12 [Cloransulam, cloransulam]
- pest or weed control [2, 12]: 0%
- pest or weed control [5, 13]: 99%
- pest or weed control ([11]; Fallopia convolvulus, post-emergence, 4.375 g ai/ha, read-out: % visual injury Obs): 85%
- pest or weed control [3, 14]: 0%
- pest or weed control [6]: 30%
- pest or weed control [7]: 50%
- pest or weed control [10]: 0%
- pest or weed control [4, 15]: 0%
